Test results from US6683077B2, “2-Amino-benzoxazinones for the treatment of viral infections” (G.D. Searle & Co., priority 1996, dated 2004).

Key:
[1] = test system: HCMV engineered virus RC256; assay: microbe, parasite or virus in culture; assay type: cell-based, human cytomegalovirus; settings: Human betaherpesvirus 5, Fibroblast, read-out: Antiviral Activity RC256, first value (EC50)
[2] = biological target: T1, Human leukocyte elastase (HLE) (Homo sapiens, UniProt P08246); assay: Human leukocyte elastase assay; assay type: biochemical
T1 construct: gift of R. Senior, Washington University
T1 sequence (P08246 30-267): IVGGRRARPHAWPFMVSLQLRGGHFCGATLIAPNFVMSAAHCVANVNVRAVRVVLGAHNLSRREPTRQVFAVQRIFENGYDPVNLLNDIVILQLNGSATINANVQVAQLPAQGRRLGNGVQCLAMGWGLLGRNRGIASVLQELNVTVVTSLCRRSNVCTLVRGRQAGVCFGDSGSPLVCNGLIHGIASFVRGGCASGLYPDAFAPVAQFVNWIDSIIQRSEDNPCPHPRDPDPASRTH
Procedure: Human leukocyte elastase (HLE) (gift of R. Senior, Washington University) was dissolved in saline at 1 mg/ml and further diluted 1/20 in assay buffer (0.2 M Tris, pH 8.0) before use. 10 μl of test compound in DMSO (or DMSO alone), 100 μl of assay buffer and 50 μl of enzyme were added to 96 well plates, mixed and pre-incubated for 30 minutes at ambient temperature. Reaction was initiated by addition of 40 μl of 2.5 mM methoxysuccinyl-Ala-Ala-Pro-Val-p-nitroanilide (Sigma; 25 mM in DMSO diluted 1/10 in assay buffer before use). The increase in absorbance at 405 nm was monitored for 10 minutes with a Biotek EL340 plate reader.

[3] = @ 1 (concentration unit not given)
[4] = @ 100 (concentration unit not given)
[5] = @ 10 (concentration unit not given)

SMILES	EC50 [1]	other results
Cc1c(CNC(=O)NCc2ccccc2)ccc2nc(N[C@@H](Cc3ccccc3)C(=O)N(C)Cc3ccccc3)oc(=O)c12 [Example 12h, N-Methyl-αS-[[5-methyl-4-oxo-6-[[[[(phenylmethyl)amino]carbonyl]amino]methyl]-4H-3,1-benzoxazin-2-yl]amino]-N-(phenylmethyl)benzenepropanamide]	18 µM	HLE, % @ concentration [2, 3]: 58% @ 1
COC(=O)[C@H](CCS(C)(=O)=O)Nc1nc2ccc(NC(=O)OC(C)(C)C)c(C)c2c(=O)o1 [Example 6u, N-[6-[[(1,1-Dimethylethoxy)carbonyl]amino]-5-methyl-4-oxo-4H-3,1-benzoxazin-2-yl]-L-methionine sulfone, methyl ester]	100 µM	HLE, % @ concentration [2, 4]: 29% @ 100
Cc1c(CNC(=O)OC(C)(C)C)ccc2nc(N[C@@H](Cc3ccccc3)C(=O)N(C)CCc3ccccc3)oc(=O)c12 [Example 7v, 1,1-Dimethylethyl[[5-methyl-2-[[2-[methyl(2-phenylethyl)amino]-2-oxo-1S-(phenylmethyl)ethyl]amino]-4-oxo-4H-3,1-benzoxazin-6-yl]methyl]carbamate]	14 µM	HLE, % @ concentration [2, 5]: 53% @ 10
COc1ccc(C[C@H](Nc2nc3ccc(CNC(=O)OCC(C)C)c(C)c3c(=O)o2)C(=O)N(C)Cc2ccccc2)cc1 [Example 9h, 2-Methylpropyl[[2-[[1S-[(4-methoxyphenyl)methyl]-2-[methyl(phenylmethyl)amino]-2-oxoethyl]amino]-5-methyl-4-oxo-4H-3,1-benzoxazin-6-yl]methyl]carbamate]	14 µM	HLE, % @ concentration [2, 5]: 45% @ 10
Cc1c(CNC(=O)Nc2ccccc2)ccc2nc(N[C@@H](Cc3ccccc3)C(=O)N(C)Cc3ccccc3)oc(=O)c12 [Example 12f, N-Methyl-αS-[[5-methyl-4-oxo-6-[[[(phenylamino)carbonyl]amino]methyl]-4H-3,1-benzoxazin-2-yl]amino]-N-(phenylmethyl)benzenepropanamide]	14 µM	HLE, % @ concentration [2, 3]: 55% @ 1
Cc1c(NC(=O)OC(C)(C)C)ccc2nc(N[C@@H](C)C(=O)OC(C)(C)C)oc(=O)c12 [Example 6, N-[6-[[(1,1-Dimethylethoxy]carbonyl]amino]-5-methyl-4-oxo-4H-3,1-benzoxazin-2-yl]-L-alanine, 1,1-dimethylethyl Ester]	> 100 µM	HLE, % @ concentration [2, 4]: 29% @ 100
Cc1c(CNC(=O)OC2CCCC2)ccc2nc(N[C@@H](Cc3ccccc3)C(=O)N(C)Cc3ccccc3)oc(=O)c12 [Example 18f, Cyclopentyl[[5-methyl-2-[[2-[methyl(phenylmethyl)amino]-2-oxo-1S-(phenylmethyl)ethyl]amino]-4-oxo-4H-3,1-benzoxazin-6-yl]methyl]carbamate]	–	HLE, % @ concentration [2, 3]: 59% @ 1
CCN(Cc1ccccc1)C(=O)[C@H](Cc1ccc(OC)cc1)Nc1nc2ccc(CNC(=O)OC(C)(C)C)c(C)c2c(=O)o1 [Example 7o, 1,1-Dimethylethyl[[2-[[2-[ethyl(phenylmethyl)amino]-1S-[(4-methoxyphenyl)methyl]-2-oxoethyl]amino]-5-methyl-4-oxo-4H-3,1-benzoxazin-6-yl]methyl]carbamate]	24 µM	HLE, % @ concentration ([2]; @ 12.5 (concentration unit not given)): 42% @ 12.5
COc1ccc(C[C@H](Nc2nc3ccc(CNC(=O)OCCN4CCCCC4)c(C)c3c(=O)o2)C(=O)N(C)Cc2ccccc2)cc1 [Example 18a, 2-(1-Piperidinyl)ethyl[[2-[[1S-[(4-methoxyphenyl)methyl]-2-[methyl(phenylmethyl)amino]-2-oxoethyl]amino]-5-methyl-4-oxo-3,1-benzoxazin-6-yl]methyl]carbamate]	5 µM	–
COc1ccc(C[C@H](Nc2nc3ccc(NC(=O)OC(C)(C)C)c(C)c3c(=O)o2)C(=O)N(C)C)cc1 [Example 6d, N-[6-[[(1,1-Dimethylethoxy)carbonyl]amino]-5-methyl-4-oxo-4H-3,1-benzoxazin-2-yl]-O-methyl-L-tyrosine, dimethylamide]	45 µM	–
COc1ccc(C[C@H](Nc2nc3ccc(CNC(=O)CCc4ccccc4)c(C)c3c(=O)o2)C(=O)N(C)Cc2ccccc2)cc1 [Example 9u, 4-Methoxy-N-methyl-αS-[[5-methyl-6-[[(1-oxo-3-phenylpropyl)amino]methyl]-4-oxo-4H-3,1-benzoxazin-2-yl]amino]-N-(phenylmethyl)benzenepropanamide]	18 µM	–
COc1ccc(C[C@H](Nc2nc3ccc(NC(=O)Cc4cccs4)c(C)c3c(=O)o2)C(=O)N2CCCC2)cc1 [Example 11o, N-[2-[[1S-[(4-Methoxyphenyl)methyl]-2-oxo-2-(1-pyrrolidinyl)ethyl]amino]-5-methyl-4-oxo-4H-3,1-benzoxazin-6-yl]thiophene-2-acetamide]	59 µM	–
COc1ccc(C[C@H](Nc2nc3ccc(CNC(=O)CN4CCOCC4)c(C)c3c(=O)o2)C(=O)N(C)Cc2ccccc2)cc1 [Example 9n, N-[[2-[[1S-[(4-Methoxyphenyl)methyl]-2-[methyl(phenylmethyl)amino]-2-oxoethyl]amino]-5-methyl-4-oxo-4H-3,1-benzoxazin-6-yl]methyl]morpholine-4-acetamide]	75 µM	–
COc1ccc(C[C@H](Nc2nc3ccc(CNC(=O)C(C)(C)C)c(C)c3c(=O)o2)C(=O)N(C)Cc2ccccc2)cc1 [Example 9l, αS-[[6-[[(2,2-Dimethyl-1-oxopropyl)amino]methyl]-5-methyl-4-oxo-4H-3,1-benzoxazin-2-yl]amino]-4-methoxy-N-methyl-N-(phenylmethyl)benzenepropanamide]	65 µM	–
COC(=O)[C@H](Cc1c[nH]c2ccccc12)Nc1nc2cccc(C)c2c(=O)o1 [Example 1m, N-(5-Methyl-4-oxo-4H-3,1-benzoxazin-2-yl)-L-tryptophan, methyl ester]	56 µM	–
Cc1c(CNC(=O)NC(C)(C)C)ccc2nc(N[C@@H](Cc3ccccc3)C(=O)N(C)Cc3ccccc3)oc(=O)c12 [Example 12e, αS-[[6-[[[[(1,1-Dimethylethyl)amino]carbonyl]amino]methyl]-5-methyl-4-oxo-4H-3,1-benzoxazin-2-yl]amino]-N-methyl-N-(phenylmethyl)benzenepropanamide]	14 µM	–
COC(=O)[C@H](Cc1ccccc1)Nc1nc2cccc(C)c2c(=O)o1 [Example 1k, N-(5-Methyl-4-oxo-4H-3,1-benzoxazin-2-yl)-L-phenylalanine, methyl ester]	> 100 µM	–
COc1ccc(C[C@H](Nc2nc3ccc(CNC(=O)OCCN4CCOCC4)c(C)c3c(=O)o2)C(=O)N(C)Cc2ccccc2)cc1 [Example 18b, 2-(4-Morpholinyl)ethyl[[2-[[1S-[(4-methoxyphenyl)methyl]-2-[methyl(phenylmethyl)amino]-2-oxoethyl]amino]-5-methyl-4-oxo-3,1-benzoxazin-6-yl]methyl]carbamate]	12 µM	–
COc1ccc(C[C@H](Nc2nc3ccc(CNC(=O)OCc4ccccc4)c(C)c3c(=O)o2)C(=O)N(C)Cc2ccccc2)cc1 [Example 9i, Phenylmethyl[[2-[[1S-[(4-methoxyphenyl)methyl]-2-[methyl(phenylmethyl)amino]-2-oxcethyl]amino]-5-methyl-4-oxo-4H-3,1-benzoxazin-6-yl]methyl]carbamate]	14 µM	–
Cc1cccc2nc(N[C@H](C(=O)OC(C)(C)C)c3ccccc3)oc(=O)c12 [Example 1o, N-(5-Methyl-4-oxo-4H-3,1-benzoxazin-2-yl)-L-phenylglycine, 1,1-dimethylethyl ester]	10 µM	–
Cc1cccc2nc(N[C@H](C)c3ccccc3)oc(=O)c12 [Example 3c, 5-Methyl-2-[[(1R)-1-phenylethyl]amino]-4H-3,1-benzoxazin-4-one]	17 µM	–
COc1ccc(C[C@H](Nc2nc3ccc(CNC(=O)NCc4ccncc4)c(C)c3c(=O)o2)C(=O)N(C)Cc2ccccc2)cc1 [Example 9e, 4-Methoxy-N-methyl-αS-[[5-methyl-4-oxo-6-[[[[[(4-pyridinyl)methyl]amino]carbonyl]amino]methyl]-4H-3,1-benzoxazin-2-yl]amino]-N-(phenylmethyl)benzenepropanamide]	35 µM	–
COC(=O)C(C)(C)Nc1nc2ccc(NC(=O)OC(C)(C)C)c(C)c2c(=O)o1 [Example 6w, N-[6-[[(1,1-Dimethylethoxy)carbonyl]amino]-5-methyl-4-oxo-4H-3,1-benzoxazin-2-yl]-2-aminoisobutyric acid, methyl ester]	> 100 µM	–
Cc1c(CNS(C)(=O)=O)cc(Br)c2nc(N[C@@H](Cc3ccccc3)C(=O)N(C)Cc3ccccc3)oc(=O)c12 [Example 15j, αS-[[8-Bromo-5-methyl-6-[[(methylsulfonyl)amino]methyl]-4-oxo-4H-3,1-benzoxazin-2-yl]amino]-N-methyl-N-(phenylmethyl)benzenepropanamide]	13 µM	–
COc1ccc(C[C@H](Nc2nc3cccc(C)c3c(=O)o2)C(=O)N(C)Cc2ccccc2)cc1 [Example 1s, αS-[(5-Methyl-4-oxo-4H-3,1-benzoxazin-2-yl)amino]-4-methoxy-N-methyl-N-(phenylmethyl)benzenepropanamide]	7 µM	–
Cc1cccc2nc(N[C@@H](C)C(=O)OC(C)(C)C)oc(=O)c12 [Example 1, N-(5-Methyl-4-oxo-4H-3,1-benzoxazin-2-yl)-L-alanine, tert-butyl Ester]	100 µM	–
